Calls of active or inactive are those of the source. The rule behind the calls is not given here.
What was measured:
[1] = molecular target: 5-hydroxytryptamine receptor 6 (Homo sapiens, UniProt P50406); assay: Displacement of [3H]LSD from human cloned 5HT6 receptor expressed in HeLa cells; assay type: cell-based
[2] = molecular target: Alpha-1B adrenergic receptor (Homo sapiens) (UniProt P35368); assay: Binding affinity at adrenergic alpha 1b receptor
[3] = Selectivity for rat SERT over human 5HT1D
[4] = molecular target: 5-hydroxytryptamine receptor 7 (Homo sapiens, UniProt P34969); assay: Displacement of [3H]5CT from human cloned 5HT7a receptor expressed in HEK293 cells; assay type: cell-based
Chain of 5-hydroxytryptamine receptor 7 (P34969 whole entry): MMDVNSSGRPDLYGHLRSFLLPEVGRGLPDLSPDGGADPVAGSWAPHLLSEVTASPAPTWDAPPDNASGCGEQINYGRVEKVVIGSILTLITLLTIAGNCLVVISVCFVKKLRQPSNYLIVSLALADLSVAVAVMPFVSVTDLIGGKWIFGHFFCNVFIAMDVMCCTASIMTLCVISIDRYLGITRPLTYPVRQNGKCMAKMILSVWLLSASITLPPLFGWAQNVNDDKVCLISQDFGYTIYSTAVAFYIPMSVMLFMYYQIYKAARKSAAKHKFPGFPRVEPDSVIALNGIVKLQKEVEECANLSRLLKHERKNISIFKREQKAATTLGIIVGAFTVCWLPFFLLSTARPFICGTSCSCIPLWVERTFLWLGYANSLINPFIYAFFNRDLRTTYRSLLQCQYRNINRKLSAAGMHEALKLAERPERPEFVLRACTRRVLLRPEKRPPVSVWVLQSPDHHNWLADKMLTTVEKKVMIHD

Rattus norvegicus [5] = assay: Ex vivo displacement of [3H]WAY-100635 from 5HT1A receptor in rat cortex at 1 mg/kg, po; assay type: functional
[6] = Blood clearance in rat at 3 mg/kg, po; assay type: ADME, organism-based; design: dose 3 mg/kg, route oral; details: whole blood
[7] = Agonist activity at guinea pig 5HT1A receptor; assay type: functional, Cavia porcellus
Rattus norvegicus [8] = assay: Attenuation of 8-OH DPAT induced locomotor activity in po dosed rat; assay type: functional
Homo sapiens [9] = species: Homo sapiens; assay: Selectivity for human 5TH1A over human 5HT1D
[10] = molecular target: T1, 5-hydroxytryptamine receptor 2C (Homo sapiens, UniProt P28335); assay: Displacement of [3H]mesulergine from human cloned 5HT2C receptor expressed in HEK293 cells; assay type: cell-based
T1 sequence (P28335 whole entry): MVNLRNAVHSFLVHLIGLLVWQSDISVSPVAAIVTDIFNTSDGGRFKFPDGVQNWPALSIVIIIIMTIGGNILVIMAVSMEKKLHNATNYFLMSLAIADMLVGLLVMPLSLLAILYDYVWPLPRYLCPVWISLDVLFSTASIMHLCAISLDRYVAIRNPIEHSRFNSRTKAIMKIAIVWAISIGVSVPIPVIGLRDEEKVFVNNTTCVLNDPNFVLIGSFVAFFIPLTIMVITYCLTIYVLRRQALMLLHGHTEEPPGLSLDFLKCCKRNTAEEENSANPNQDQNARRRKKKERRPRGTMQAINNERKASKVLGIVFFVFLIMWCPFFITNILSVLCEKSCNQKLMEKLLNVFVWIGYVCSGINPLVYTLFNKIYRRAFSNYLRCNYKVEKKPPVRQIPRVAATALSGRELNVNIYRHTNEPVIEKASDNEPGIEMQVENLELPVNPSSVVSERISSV

[11] = molecular target: 5-hydroxytryptamine receptor 1D (Homo sapiens, UniProt P28221); assay: Displacement of [3H]5-HT from human cloned 5HT1D receptor expressed in CHO cells; assay type: cell-based
Chain of 5-hydroxytryptamine receptor 1D (P28221 whole entry): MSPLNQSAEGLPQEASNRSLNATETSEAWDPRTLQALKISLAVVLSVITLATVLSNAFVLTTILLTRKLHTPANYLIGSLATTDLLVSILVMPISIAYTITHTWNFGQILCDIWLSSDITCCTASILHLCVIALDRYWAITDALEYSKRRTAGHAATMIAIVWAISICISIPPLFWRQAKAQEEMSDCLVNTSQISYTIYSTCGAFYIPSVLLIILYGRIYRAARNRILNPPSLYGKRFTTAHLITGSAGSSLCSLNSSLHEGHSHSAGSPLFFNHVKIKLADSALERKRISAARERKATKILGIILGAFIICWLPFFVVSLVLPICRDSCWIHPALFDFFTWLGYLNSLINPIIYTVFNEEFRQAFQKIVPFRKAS

[12] = molecular target: T2, 5-hydroxytryptamine receptor 1A (Rattus norvegicus, UniProt P19327); assay: Agonist activity at rat 5HT1A receptor; assay type: functional
T2 sequence (P19327 whole entry): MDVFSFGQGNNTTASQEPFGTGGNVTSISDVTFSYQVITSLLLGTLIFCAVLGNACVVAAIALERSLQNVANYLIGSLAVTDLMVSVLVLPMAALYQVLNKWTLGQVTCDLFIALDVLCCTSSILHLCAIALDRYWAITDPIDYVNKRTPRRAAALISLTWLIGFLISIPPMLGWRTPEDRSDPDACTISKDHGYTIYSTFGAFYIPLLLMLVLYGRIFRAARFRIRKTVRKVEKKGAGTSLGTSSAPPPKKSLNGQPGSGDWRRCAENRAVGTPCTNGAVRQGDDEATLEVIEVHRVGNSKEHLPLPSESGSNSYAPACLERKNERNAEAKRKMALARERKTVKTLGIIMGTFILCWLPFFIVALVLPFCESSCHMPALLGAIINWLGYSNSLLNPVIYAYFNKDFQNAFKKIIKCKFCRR

[13] = Selectivity for rat SERT over human 5HT1B
[14] = molecular target: T3, 5-hydroxytryptamine receptor 1A (Homo sapiens) (UniProt P08908); assay: Intrinsic activity at 5HT1A receptor expressed in HEK293 cells relative to 5HT by [35S]GTPgammaS binding assay; assay type: functional, cell-based
T3 sequence (whole entry): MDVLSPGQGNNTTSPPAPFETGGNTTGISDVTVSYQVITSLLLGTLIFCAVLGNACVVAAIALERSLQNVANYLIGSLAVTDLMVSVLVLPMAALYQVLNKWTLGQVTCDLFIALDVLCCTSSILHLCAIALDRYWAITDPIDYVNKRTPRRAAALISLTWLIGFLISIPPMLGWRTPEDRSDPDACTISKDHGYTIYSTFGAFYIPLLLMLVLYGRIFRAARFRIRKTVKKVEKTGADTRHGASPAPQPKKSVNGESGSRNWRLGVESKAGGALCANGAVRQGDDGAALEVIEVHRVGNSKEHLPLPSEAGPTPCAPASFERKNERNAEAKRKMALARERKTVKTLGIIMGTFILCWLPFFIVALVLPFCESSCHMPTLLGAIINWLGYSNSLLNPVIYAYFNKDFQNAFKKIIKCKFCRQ

D(3) dopamine receptor = D(3) dopamine receptor (Homo sapiens, UniProt P35462); assay: Displacement of [125I]iodosulpiride from human cloned D3 receptor expressed in CHO cells; assay type: cell-based
Chain of D(3) dopamine receptor (P35462 whole entry): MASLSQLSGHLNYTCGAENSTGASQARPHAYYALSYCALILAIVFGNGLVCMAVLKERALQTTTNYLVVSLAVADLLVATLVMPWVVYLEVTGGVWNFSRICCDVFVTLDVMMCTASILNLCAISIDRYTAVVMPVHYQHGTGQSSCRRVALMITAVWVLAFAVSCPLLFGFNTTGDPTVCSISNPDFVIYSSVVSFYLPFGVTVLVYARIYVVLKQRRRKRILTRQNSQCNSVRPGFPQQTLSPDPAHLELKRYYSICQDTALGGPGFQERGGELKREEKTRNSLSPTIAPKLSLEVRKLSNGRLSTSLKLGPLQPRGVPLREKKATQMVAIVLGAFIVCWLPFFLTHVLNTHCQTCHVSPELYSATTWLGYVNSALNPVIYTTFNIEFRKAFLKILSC

Rattus norvegicus [15] = species: Rattus norvegicus; assay: Ex vivo displacement of [3H]WAY-100635 from 5HT1A receptor in rat cortex; assay type: functional, organism-based
[16] = Oral bioavailability in rat at 3 mg/kg, po; assay type: ADME, organism-based; details: in vivo
Rattus norvegicus [17] = assay: Effect on locomotor activity in rat up to 10 mg/kg
[18] = molecular target: 5-hydroxytryptamine receptor 2A (Homo sapiens, UniProt P28223); assay: Displacement of [3H]ketanserin from human cloned 5HT2A receptor expressed in HEK293 cells; assay type: cell-based
Chain of 5-hydroxytryptamine receptor 2A (P28223 whole entry): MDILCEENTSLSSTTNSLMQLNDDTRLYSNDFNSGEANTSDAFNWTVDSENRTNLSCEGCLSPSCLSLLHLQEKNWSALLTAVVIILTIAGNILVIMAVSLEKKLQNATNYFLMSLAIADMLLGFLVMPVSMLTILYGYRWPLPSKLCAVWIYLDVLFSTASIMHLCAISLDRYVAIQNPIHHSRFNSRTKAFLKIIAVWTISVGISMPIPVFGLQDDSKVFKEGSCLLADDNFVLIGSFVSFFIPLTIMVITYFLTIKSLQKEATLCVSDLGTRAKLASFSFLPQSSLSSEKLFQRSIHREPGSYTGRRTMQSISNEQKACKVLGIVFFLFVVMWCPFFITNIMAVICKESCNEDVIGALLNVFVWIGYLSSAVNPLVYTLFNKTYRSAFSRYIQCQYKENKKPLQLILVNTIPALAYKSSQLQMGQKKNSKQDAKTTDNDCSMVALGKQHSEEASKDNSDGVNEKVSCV

Rattus norvegicus [19] = assay: Ex vivo displacement of [3H]8-OH DPAT from 5HT1A receptor in rat cortex at 1 mg/kg, po; assay type: functional
[20] = molecular target: 5-hydroxytryptamine receptor 1B (Homo sapiens, UniProt P28222); assay: Displacement of [3H]5-HT from human cloned 5HT1B receptor expressed in CHO cells; assay type: cell-based
Chain of 5-hydroxytryptamine receptor 1B (P28222 whole entry): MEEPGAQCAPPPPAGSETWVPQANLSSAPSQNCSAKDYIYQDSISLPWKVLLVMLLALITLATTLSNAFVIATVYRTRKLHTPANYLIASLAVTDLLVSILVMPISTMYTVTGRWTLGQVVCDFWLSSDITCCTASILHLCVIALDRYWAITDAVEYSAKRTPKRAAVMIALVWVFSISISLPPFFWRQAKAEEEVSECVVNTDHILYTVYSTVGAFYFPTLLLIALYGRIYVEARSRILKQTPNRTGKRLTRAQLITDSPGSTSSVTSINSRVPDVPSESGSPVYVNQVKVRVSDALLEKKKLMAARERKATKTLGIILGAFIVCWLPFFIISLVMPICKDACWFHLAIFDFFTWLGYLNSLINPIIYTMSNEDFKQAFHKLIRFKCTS

[21] = molecular target: 5-hydroxytryptamine receptor 2B (Homo sapiens, UniProt P41595); assay: Displacement of [3H]5-HT from human cloned 5HT2B receptor expressed in HEK293 cells; assay type: cell-based
Chain of 5-hydroxytryptamine receptor 2B (P41595 whole entry): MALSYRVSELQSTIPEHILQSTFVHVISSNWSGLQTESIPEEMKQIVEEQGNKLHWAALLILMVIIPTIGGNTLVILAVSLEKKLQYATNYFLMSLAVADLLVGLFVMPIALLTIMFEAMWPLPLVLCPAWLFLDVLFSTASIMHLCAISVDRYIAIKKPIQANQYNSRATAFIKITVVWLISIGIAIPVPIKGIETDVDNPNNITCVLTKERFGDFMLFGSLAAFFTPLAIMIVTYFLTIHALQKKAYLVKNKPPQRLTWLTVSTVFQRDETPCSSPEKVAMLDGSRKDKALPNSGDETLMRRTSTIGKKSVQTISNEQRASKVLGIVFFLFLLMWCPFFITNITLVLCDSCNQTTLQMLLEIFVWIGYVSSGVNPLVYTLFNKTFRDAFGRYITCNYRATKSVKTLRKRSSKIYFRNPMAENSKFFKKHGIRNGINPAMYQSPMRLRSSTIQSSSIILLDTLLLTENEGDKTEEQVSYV

[22] = molecular target: Sodium-dependent serotonin transporter (Rattus norvegicus, UniProt P31652); assay: Inhibition of [3H]5-HT uptake at SERT in rat cortical synaptosomes; assay type: subcellular, Brain
Chain of Sodium-dependent serotonin transporter (P31652 whole entry): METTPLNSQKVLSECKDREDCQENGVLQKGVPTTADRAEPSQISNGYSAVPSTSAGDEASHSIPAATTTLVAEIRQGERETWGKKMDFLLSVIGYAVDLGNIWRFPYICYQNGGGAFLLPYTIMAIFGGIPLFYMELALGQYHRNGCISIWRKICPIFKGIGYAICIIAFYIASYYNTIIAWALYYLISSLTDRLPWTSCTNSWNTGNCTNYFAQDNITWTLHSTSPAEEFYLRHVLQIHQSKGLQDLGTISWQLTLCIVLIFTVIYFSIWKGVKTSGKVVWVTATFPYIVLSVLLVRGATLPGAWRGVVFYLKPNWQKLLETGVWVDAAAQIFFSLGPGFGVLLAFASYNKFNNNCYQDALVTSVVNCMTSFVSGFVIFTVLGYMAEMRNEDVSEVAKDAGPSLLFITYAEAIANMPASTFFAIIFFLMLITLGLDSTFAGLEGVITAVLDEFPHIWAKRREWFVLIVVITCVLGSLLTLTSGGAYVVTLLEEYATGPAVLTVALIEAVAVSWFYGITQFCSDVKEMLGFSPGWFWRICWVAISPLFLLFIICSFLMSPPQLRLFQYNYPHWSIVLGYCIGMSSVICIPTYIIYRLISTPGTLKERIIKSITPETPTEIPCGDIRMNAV

Rattus norvegicus [23] = species: Rattus norvegicus; assay: Ex vivo displacement of [3H]8-OH DPAT from 5HT1A receptor in rat cortex; assay type: functional, organism-based
[24] = molecular target: T4, 5-hydroxytryptamine receptor 1A (Homo sapiens, UniProt P08908); assay: Displacement of [3H]WAY-100635 from human cloned 5HT1A receptor expressed in CHO cells; assay type: cell-based
T4 sequence (P08908 whole entry): T3 sequence (whole entry)

[25] = Agonist activity at marmoset 5HT1A receptor; assay type: functional, Callithrix jacchus
Rattus norvegicus [26] = species: Rattus norvegicus; assay: Ex vivo inhibition of [3H]5-HT uptake at SERT in rat cortical synaptosomes; assay type: functional; details: Brain
D(2) dopamine receptor = D(2) dopamine receptor (Homo sapiens, UniProt P14416); assay: Displacement of [125I]iodosulpiride from human cloned D2 receptor expressed in CHO cells; assay type: cell-based
Chain of D(2) dopamine receptor (P14416 whole entry): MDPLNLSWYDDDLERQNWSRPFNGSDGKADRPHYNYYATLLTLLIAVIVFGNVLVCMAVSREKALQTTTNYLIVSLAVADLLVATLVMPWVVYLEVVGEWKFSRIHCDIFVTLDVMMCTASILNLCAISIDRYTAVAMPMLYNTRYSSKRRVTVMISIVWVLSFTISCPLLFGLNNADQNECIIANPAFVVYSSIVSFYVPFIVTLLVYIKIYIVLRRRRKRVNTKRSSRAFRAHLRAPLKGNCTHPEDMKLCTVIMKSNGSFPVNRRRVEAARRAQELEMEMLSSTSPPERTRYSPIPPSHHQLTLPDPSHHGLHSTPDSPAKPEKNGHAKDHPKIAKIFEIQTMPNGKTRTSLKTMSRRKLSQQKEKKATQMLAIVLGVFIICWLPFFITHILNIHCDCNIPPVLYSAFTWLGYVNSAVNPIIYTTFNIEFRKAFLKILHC

Homo sapiens [27] = species: Homo sapiens; assay: Selectivity for human 5TH1A over human 5HT1B
[28] = Ratio of drug level in brain to blood in rat

Chain of 5-hydroxytryptamine receptor 6 (P50406 whole entry): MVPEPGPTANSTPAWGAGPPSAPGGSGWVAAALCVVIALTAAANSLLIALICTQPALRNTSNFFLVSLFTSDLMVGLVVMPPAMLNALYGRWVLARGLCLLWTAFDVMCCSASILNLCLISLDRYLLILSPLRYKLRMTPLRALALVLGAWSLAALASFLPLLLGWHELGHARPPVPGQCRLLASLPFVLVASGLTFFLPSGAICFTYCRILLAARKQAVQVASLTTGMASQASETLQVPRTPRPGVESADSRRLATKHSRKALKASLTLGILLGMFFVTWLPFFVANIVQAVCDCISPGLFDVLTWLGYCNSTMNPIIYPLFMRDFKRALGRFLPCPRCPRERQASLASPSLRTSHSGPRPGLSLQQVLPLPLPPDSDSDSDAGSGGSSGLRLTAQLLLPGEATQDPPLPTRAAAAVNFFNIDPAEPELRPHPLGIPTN
Chain of Alpha-1B adrenergic receptor (Homo sapiens) (P35368 whole entry, looked up): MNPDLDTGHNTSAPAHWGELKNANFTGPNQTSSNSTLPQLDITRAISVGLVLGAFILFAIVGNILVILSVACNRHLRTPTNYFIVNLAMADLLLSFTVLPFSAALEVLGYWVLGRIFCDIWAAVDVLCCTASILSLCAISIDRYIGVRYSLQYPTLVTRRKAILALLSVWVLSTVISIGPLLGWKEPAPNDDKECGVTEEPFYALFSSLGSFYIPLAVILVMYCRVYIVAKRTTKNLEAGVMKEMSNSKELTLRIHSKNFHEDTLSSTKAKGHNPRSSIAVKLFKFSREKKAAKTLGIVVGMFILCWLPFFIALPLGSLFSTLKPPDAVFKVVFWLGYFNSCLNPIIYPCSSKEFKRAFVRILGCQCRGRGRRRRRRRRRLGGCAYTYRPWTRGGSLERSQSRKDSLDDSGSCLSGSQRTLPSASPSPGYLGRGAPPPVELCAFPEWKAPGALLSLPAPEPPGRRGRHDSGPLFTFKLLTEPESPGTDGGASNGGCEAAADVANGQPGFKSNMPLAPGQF

| Structure (SMILES) | Ki [1] [nM] | Ki [2] [nM] | Ki [4] [nM] | CL/F [6] [mL/min/kg] | Ki [10] [nM] | Ki [11] [nM] | Ki (D(3) dopamine receptor) [nM] | bioavailability [16] [%] | Ki [18] [nM] | Ki [20] [nM] | Ki [22] [nM] | Ki [24] [nM] | Ki (D(2) dopamine receptor) [nM] | Kp [28] | Ki [21] [nM] | also measured |
| --- | --- | --- | --- | --- | --- | --- | --- | --- | --- | --- | --- | --- | --- | --- | --- | --- |
| Cc1ccc2c(OCCN3CCC(Cc4cc5c(cc4F)OCC(=O)N5)CC3)cc(Cl)cc2n1 | 7940 | 2510 | 39.8 | 18 | > 5010 | 794 | 2000 | 60 | > 10000 | 2000 | 15.8 | 2.51 | 3160 |  |  | Selectivity ratio [3]: 100; inhibition in vivo at 1 mg/kg (Rattus norvegicus [5]): 50%; Log Ki [7]: > -9; ED50 (Rattus norvegicus [8]): 3 mg/kg; Selectivity ratio (Homo sapiens [9]): 100; Ki [12]: > 1 nM; Selectivity ratio [13]: 100; Intrinsic activity [14]: 0; Activity (Rattus norvegicus [15]): Dose-dependent effect; Activity (Rattus norvegicus [17]): inactive; inhibition in vivo at 1 mg/kg (Rattus norvegicus [19]): 50%; Log Ki ([21]; hek293): > -6; Activity (Rattus norvegicus [23]): Dose-dependent effect; Log Ki [25]: > -9; ED50 (Rattus norvegicus [26]): 3 mg/kg; Selectivity ratio (Homo sapiens [27]): 100 |
| Cc1ccc2c(OCCN3CCC(Cc4cc(F)c5c(c4)NC(=O)CO5)CC3)cc(Cl)cc2n1 | > 10000 | 1580 | 79.4 | 16 | 2510 | 631 | 1260 | 51 | 3160 | 631 | 63.1 | 10 | 2510 |  | 3160 |  |
| Cc1ccc2c(OCCN3CCC(Cc4ccc5c(c4)NC(=O)CO5)CC3)cc(F)cc2n1 |  |  |  | 25 |  | 398 |  | 41 |  | > 1000 | 15.8 | 0.794 |  |  |  |  |
| Cc1ccc2c(OCCN3CCC(Cc4ccc5c(c4)NC(=O)CO5)CC3)cc(C#N)cc2n1 |  |  |  |  |  | 251 |  |  |  | 1000 | 100 | 20 |  |  |  |  |
| Cc1ccc2c(OCCN3CCC(Cc4ccc5c(c4)NC(=O)CO5)CC3)cc(Cl)cc2n1 |  |  |  | 25 |  | 794 |  | 56 |  | 1260 | 10 | 1.58 |  | 0.2 |  |  |
| Cc1ccc2c(OCCN3CCC(Cc4ccc5c(c4)NC(=O)CO5)CC3)cccc2n1 | > 10000 | 2510 | 200 | 50 | > 7940 |  | 631 | 45 | 3160 |  |  |  | 1260 |  | 1580 |  |
| Cc1ccc2c(OCCN3CCC(Cc4ccc5c(c4F)NC(=O)CO5)CC3)cc(Cl)cc2n1 | > 10000 | 398 | 126 | 28 | 3980 | 631 | 1000 | 43 | 3980 | 1580 | 63.1 | 2.51 | 1260 |  | 1580 |  |
| Cc1ccc2c(OCCN3CCC(Cc4cc5c(cc4F)OCC(=O)N5)CC3)cc(F)cc2n1 | > 1000 | 794 | 39.8 | 19 | 1260 | 251 | 501 | 54 | 2000 | 1000 | 7.94 | 0.398 | 2000 | 1.2 | 1000 | Selectivity ratio [3]: 100; inhibition in vivo at 1 mg/kg (Rattus norvegicus [5]): 50%; Log Ki [7]: > -9; ED50 (Rattus norvegicus [8]): < 1 mg/kg; Selectivity ratio (Homo sapiens [9]): 100; Ki [12]: > 1 nM; Selectivity ratio [13]: 100; Intrinsic activity [14]: 0; Activity (Rattus norvegicus [15]): Dose-dependent effect; inhibition in vivo at 1 mg/kg (Rattus norvegicus [19]): 50%; Activity (Rattus norvegicus [23]): Dose-dependent effect; Log Ki [25]: > -9; ED50 (Rattus norvegicus [26]): 3 mg/kg; Selectivity ratio (Homo sapiens [27]): 100 |

Continued, in another order:

| Ki [1] [nM] | Ki [2] [nM] | Ki [4] [nM] | CL/F [6] [mL/min/kg] | Ki [10] [nM] | Ki [11] [nM] | Ki (D(3) dopamine receptor) [nM] | bioavailability [16] [%] | Ki [18] [nM] | Ki [20] [nM] | Ki [22] [nM] | Ki [24] [nM] | Ki (D(2) dopamine receptor) [nM] | Kp [28] | Ki [21] [nM] | Structure (SMILES) | also measured |
| --- | --- | --- | --- | --- | --- | --- | --- | --- | --- | --- | --- | --- | --- | --- | --- | --- |
|  |  |  |  |  | 2.51 |  |  |  | 31.6 | 10 | 50.1 |  |  |  | Cc1ccc2c(OCCN3CCC(Cc4ccc5c(c4)NC(=O)CO5)CC3)c(F)ccc2n1 |  |
| > 6310 |  | 79.4 | 25 | > 10000 | 79.4 | 3980 | 88 | > 10000 | 316 | 63.1 | 3.98 | > 10000 | 0.4 | > 7940 | Cc1ccc2c(OCCN3CCC(Cc4cc(F)c5c(c4)NC(=O)CO5)CC3)cc(F)cc2n1 | Log Ki [2]: > -6 |
|  |  |  | 41 |  | 0.794 |  |  |  | 2.51 | 15.8 | 2.51 |  | 4 |  | Cc1ccc2c(OCCN3CCC(Cc4ccc5c(c4F)NC(=O)CO5)CC3)cccc2n1 |  |
|  |  |  |  |  | 79.4 |  |  |  | 794 | 7.94 | 20 |  |  |  | Cc1ccc2c(OCCN3CCC(Cc4ccc5c(c4)NC(=O)CO5)CC3)ccc(F)c2n1 |  |
|  |  |  | 22 |  | 0.398 |  |  |  | 0.794 | 6.31 | 5.01 |  |  |  | Cc1ccc2c(OCCN3CCC(Cc4cc(F)c5c(c4)NC(=O)CO5)CC3)cccc2n1 |  |
|  |  |  |  |  | 63.1 |  |  |  | 158 | 12.6 | 39.8 |  |  |  | Cc1ccc2c(OCCN3CCC(Cc4ccc5c(c4)NC(=O)CO5)CC3)ccc(Cl)c2n1 |  |
|  |  |  | 36 |  | 3.16 |  | 33 |  | 20 | 7.94 | 0.501 |  |  |  | Cc1ccc2c(OCCN3CCC(Cc4cc5c(cc4F)OCC(=O)N5)CC3)cccc2n1 |  |
| > 10000 | 1260 | 126 | 27 | 2510 | 100 | 794 | 39 | 2000 | 398 | 25.1 | 1.58 | 1260 | 6.4 |  | Cc1ccc2c(OCCN3CCC(Cc4ccc5c(c4F)NC(=O)CO5)CC3)cc(F)cc2n1 |  |
